# Assays:
# HIF1α and HIF2α = experiment: Immunoblot of HIF1α/HIF2α under hypoxia in T4302 CD133+ cells; format: cell-based, human; details: 200 nM 24 h, then 2% O2 16 h
# Protocol: (A) T4302 CD133+ cells were treated with 200 nM RO4929097 (GSI), and irradiated 4 hours later. Cells were cultured for two days and lysed for immunoblotting. (B) T4302 CD133+ cells were treated with 200 nM GSI or FTI±radiation. Cells were lysed 2 days after treatment. (C) T4302 CD133+ cells were treated with 200 nM GSI±FTI for 24 hours, and left under normoxia or in 2% O2 for 16 hours before being lysed for immunoblotting.
# GBM 44 = experiment: Growth inhibition at day 5, spheroid GBM culture; format: cell-based, human
# Protocol: (§1) (A) Known genetic features of selected GBM samples. WT: wild type; Amp: amplification; vIII: EGFRvIII; ND: not determined. (B) Spheroid GBM cultures were derived from freshly collected subcutaneous tumors and cultured for 2 weeks in stem cell media to enrich stem cell-like cancer cells. SF7225 was maintained as a primary spheroid culture. Growth inhibition at day 5 after treatment was determined as described in FIG. 5. *: p<0.01 by Student's t-test and growth inhibition ≧30% vs. the corresponding vehicle-treated groups. #: p<0.01 and >30% growth inhibition vs. the radiation only groups.
# (§2) Work is now extended to a set of subcutaneous GBM xenografts (GBM) established by Dr. Jann Sarkaria and colleagues at Mayo Clinic. These samples are known to have mutational status of EGFR, p53 and PTEN and different radiosensitivity (FIG. 8A) (69-71). Because the cancer stem cell identity of CD133+ of the Mayo Clinic samples has not been validated by functional assays, the present inventor used the neurosphere culture that is widely utilized as a surrogate of GSCs for its ability to enrich GSC-like population (72, 73). Tumor response to GSI, FTI and/or radiation was determined as growth inhibition on day 5 after treatment, with a greater than 30% cell number reduction was defined as positive response mimicking the RECIST criteria (FIG. 8B). […] Therefore, the present inventor will continuously expand the GBM panel and determine the genomic features of all samples with focus on prevalent GBM-associated aberrations. On the basis of this molecularly characterized tumor panel, the present inventor will start to explore the potential biomarkers that may predict tumor response to the combination therapy of radiation, GSI and FTI by experiments described in herein.
# GBM43 = experiment: Growth inhibition at day 5, spheroid GBM culture; format: cell-based, human; details: effects diminished after radiation
# Protocol: as §1, §2
# [1] = tested on: intracranial T4302 tumors; experiment: Orthotopic GBM model, survival and tumor burden; format: in vivo, Athymic nude mice
# Protocol: (A, B) T4302 CD133+ cells were treated with 100 nM GSI±FTI for 48 hours and lysed in RIPA buffer. Mice bearing intracranial T4302 tumors were orally treated with 30 mg/kg/day GSI once a day (q.d.)±100 mg/kg/day FTI twice a day (b.i.d.) for 7 days. Brains were resected and homogenized in RIPA buffer. All lysates were blotted with an antibody specific to prelamin A. (B) Additional brains were fixed and resected for IHC staining for cleaved Notch1. (C) T4302 CD133+ cells were infected with lentivirus expressing firefly luciferase and selected with puromycin for two days. Athymic nude mice were intracranially implanted with 5,000 cells, maintained for 10 days, and treated with GSI±FTI for 20 days as described above. In a separated experiment, animals were treated by the same protocol, except they were given 2 doses of 4 Gy X-ray irradiation on day 11 and day 12, 4 hours after drug administration. These mice were on drugs for 30 days. The median survival was calculated by the GraphPad Prism 5 software. (D) Animals in the unirradiated experiment were tracked for their tumor progression by bioluminescence imaging. The Y axis is set in a log scale. (E,F) The survival curves of these two experiments are shown.
# Mice were first anesthetized using an isoflurane inhalation system and maintained on the nose cone during the procedure. 5,000 CD 133+ GSC cells suspended in 10 μl PBS were implanted into the right cerebrum with 30 gauge needles. Animals were maintained for 10 days to allow tumor establishment. Before treatment, any mouse showing distress or neurological signs (e.g. lethargy, hemiparesis, ataxia, seizures) would be euthanized. The remaining mice will be randomized to treatment groups just prior to treatment. […]
# Mice were weighted and visually inspected daily once treatments begin. Tumor development was monitored by bioluminescence imaging every week. […] The primary readout of the in vivo tests is the median survival calculated by the Kaplan-Meier estimator using the GraphPad Prism5 software. Drug efficacy was also be assessed by tumor sizes estimated by bioluminescence imaging.
structure (smiles),measurement,setting,value
CC(C)(C(=O)NCC(F)(F)C(F)(F)F)C(=O)N[C@@H]1C(=O)Nc2ccccc2-c2ccccc21 [RO4929097],HIF1α and HIF2α levels upon hypoxia stimulation,HIF1α and HIF2α,moderate reduction
same,growth inhibition on day 5,GBM 44; 0 Gy,48±3.2%
same,growth inhibition on day 5,GBM 44; 3 Gy,65±3.3%
same,"tumor response (growth inhibition day 5), in words",GBM43,moderate response
same,"survival benefit, in words","[1]; unirradiated, 20 days oral treatment",did not produce significant benefits
same,"survival benefit, in words","[1]; with 2 doses of 4 Gy local X-ray, 30 days oral treatment",some modest effects
same,mice free of tumor burden / sustained control of orthotopic GBM,"[1]; with radiation, ~day 80",1 out of 8

# From US8853274B1, “Compositions and methods for targeting glioblastomas cells” (Vanderbilt University, priority 2011, dated 2014)
